This note sets out measurements from ChEMBL document CHEMBL4673400, “Potential of Cyclin-Dependent Kinase Inhibitors as Cancer Therapy” (ACS Med Chem Lett, 2021).

Each structure is given as a SMILES string.

Chain of CDK6/cyclin D1 (P24385 whole entry): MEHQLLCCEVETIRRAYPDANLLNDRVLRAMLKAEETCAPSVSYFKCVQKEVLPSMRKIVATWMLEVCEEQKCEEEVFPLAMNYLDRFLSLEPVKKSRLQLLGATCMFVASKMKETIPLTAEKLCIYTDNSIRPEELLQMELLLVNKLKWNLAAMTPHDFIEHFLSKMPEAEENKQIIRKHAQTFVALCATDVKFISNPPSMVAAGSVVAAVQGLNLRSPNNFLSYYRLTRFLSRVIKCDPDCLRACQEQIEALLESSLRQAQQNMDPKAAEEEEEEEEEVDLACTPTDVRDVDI
Chain of CDK6/cyclin D1 (Q00534 whole entry): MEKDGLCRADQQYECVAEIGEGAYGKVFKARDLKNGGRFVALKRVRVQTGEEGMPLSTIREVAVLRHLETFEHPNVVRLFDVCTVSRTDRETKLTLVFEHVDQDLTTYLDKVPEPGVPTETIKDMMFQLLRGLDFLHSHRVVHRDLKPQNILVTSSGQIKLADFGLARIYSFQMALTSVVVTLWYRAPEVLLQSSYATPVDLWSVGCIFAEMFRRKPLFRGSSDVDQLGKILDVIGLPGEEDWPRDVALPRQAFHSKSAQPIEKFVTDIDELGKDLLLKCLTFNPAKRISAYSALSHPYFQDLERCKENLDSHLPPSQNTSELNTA

One assay addresses CDK6/cyclin D1 (Homo sapiens, UniProt Q00534).
`C[C@@]1(O)CCC[C@H]1n1c(=O)ccc2cnc(NC3CCN(S(=O)(=O)CC4CC4)CC3)nc21` showed a Ki of 0.88 nM.

Another assay addresses Cyclin-dependent kinase 2/cyclin E1 (Homo sapiens, UniProt P24941).
Description: Inhibition of recombinant full length wild-type phosphorylated CDK2/Cyclin E1 (unknown origin) expressed in baculovirus expression system assessed as reduction in production of ADP using 5-FAM-QSPKKG-CONH2 peptide as substrate preincubated with enzyme for 15 mins followed by further incubation with ATP for 45 mins by fluorescence-based microfluidic mobility shift assay
The compound `CNS(=O)(=O)N1CCC(Nc2ncc3cc(Cl)c(=O)n([C@@H]4CCC[C@@]4(C)O)c3n2)CC1` returned a Ki of 0.2 nM.
On to `C[C@@]1(O)CCC[C@H]1n1c(=O)c(CC#N)cc2cnc(NC3CCN(S(C)(=O)=O)CC3)nc21`, for which the inhibitory constant (Ki) was determined as 0.16 nM.
In the case of `C[C@@]1(O)CCC[C@H]1n1c(=O)ccc2cnc(NC3CCN(S(=O)(=O)CC4CC4)CC3)nc21`, the Ki came out at 0.25 nM.
Same read-out and setting: as for `C[C@@H]1[C@H](O)CC[C@H]1n1c(=O)ccc2cnc(NC3CCN(S(C)(=O)=O)CC3)nc21`, the figure is 0.12 nM; as for `CS(=O)(=O)N1CCC(Nc2ncc3cc(CC(N)=O)c(=O)n([C@@H]4CCC[C@@H](O)C4)c3n2)CC1`, 1.73 nM.
On the same count and under the same terms, under `C[C@@]1(O)CCC[C@H]1n1c(=O)ccc2cnc(NC3CCN(S(N)(=O)=O)CC3)nc21` stands 0.1 nM; under `CNS(=O)(=O)N1CCC(Nc2ncc3ccc(=O)n([C@@H]4CCC[C@@]4(C)O)c3n2)CC1`, 0.28 nM; under `C[C@]1(O)CCC[C@@H]1n1c(=O)ccc2cnc(NC3CCN(S(=O)(=O)c4nccs4)CC3)nc21`, 7.32 nM.
